Test results published in patent EP4389132A1 (priority 2021, dated 2023).

Key:
[1] = target: T1, binding of SARS-CoV-2 to ACE2 (UniProt P0DTC2+Q9BYF1); assay: COVID-19 Spike-ACE2 Binding Assay Kit (RayBiotech): ACE2 protein binding to S-protein adsorption plate, absorbance at 450 nm; design: species or system human
T1 construct: purchased RayBiotech Life, Inc

coronavirus (SARS-CoV-2) = assay: Antiviral test of processed non-woven fabric according to ISO 18184, plaque method; format: cell-based; details: polyethylene terephthalate non-woven fabric immersed in 2% (V/V) aqueous solution, pickup rate 200%, dried at 110°C; control 6.63
[2] = system: influenza A/Kitakyushu/159/93 (H3N2); assay: Antiviral properties of treated natural rubber glove film, plaque method on MDCK cells; format: cell-based, influenza virus; details: glove immersed in 1% (V/V) aqueous solution for 10 minutes, dried; virus contact 1 hour at room temperature; control 6.78

## O[C@H]1[C@H](O)[C@@H](O)[C@H](O)[C@@H](O)[C@H]1O [Myo-inositol, myo-inositol]
[1]; Concentration 2 % (V/V), relative binding rate, control = 1.00
  Virus binding rate: 1.00
[1]; summary of Table 1
  binding inhibitory effect on the binding of SARS-CoV-2 to ACE2 (in words): no binding inhibitory effect was observed
Coronavirus (SARS-CoV-2)
  Viral infectivity titer: 2.7 PFU/0.1 mL, Log10
[2]
  Viral infectivity titer: 4.1 PFU/0.1 mL, Log10
